PubChem BioAssay (NCI)
Values joined by “and” are separate entries in the source; they are usually repeats but may differ in a detail not shown here. Identical values can stand only once.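 Interpolation was linear, between the two tested concentrations surrounding the appropriate level; five concentrations were tested over 48 hours in 96-well plates. GI50: concentration for 50% inhibition of growth. TGI is the concentration that stops growth completely.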

Columns and labels:
Assay in all cases: inhibition of tumour cell growth, NCI panel, 48 h
MDA-MB-435 = test system: MDA-MB-435
T-47D breast = test system: T-47D breast
NCI/ADR-RES ovarian = test system: NCI/ADR-RES ovarian
XF 498 CNS = test system: XF 498 CNS
KM20L2 colon = test system: KM20L2 colon
DLD-1 colon = test system: DLD-1 colon
M19-MEL melanoma = test system: M19-MEL melanoma
RXF-631 renal = test system: RXF-631 renal
MDA-N = test system: MDA-N

Work on CC(=O)OC1CCC2(C)C(=CCC3C4CC(CN5CC5)C(=O)C4(C)CCC32)C1 (configuration not stated) yielded a GI50 (MDA-MB-435) of 14.8 µM, a TGI (MDA-MB-435) of 28.4 µM and a GI50 (T-47D breast) of 0.914 µM. It also gave a TGI (T-47D breast) of 2.7 µM, a GI50 (NCI/ADR-RES ovarian) of 16 µM and a TGI (NCI/ADR-RES ovarian) of 41.5 µM.

Brc1ccc2c(c1)-c1ccccc1C1=NCCN12 was tested, and the GI50 (MDA-MB-435) was 1.06 µM, the TGI (MDA-MB-435) was 2.45 µM and the GI50 (T-47D breast) was 2.85 µM. For the same compound, the TGI (T-47D breast) was 18.4 µM, the GI50 (NCI/ADR-RES ovarian) was 0.897 µM and the TGI (NCI/ADR-RES ovarian) was 26.7 µM.

Work on COc1ccc(S(=O)(=O)NCCCNc2nccc(-c3c(-c4ccc(F)cc4)nc4sccn34)n2)cc1 yielded a GI50 (MDA-MB-435) of 3.28 µM, a TGI (MDA-MB-435) of over 100 µM and a GI50 (T-47D breast) of 3.24 µM. The TGI (T-47D breast) was 71.3 µM, the GI50 (NCI/ADR-RES ovarian) was 5.23 µM and the TGI (NCI/ADR-RES ovarian) was over 100 µM.

Cc1[nH]n(C(=O)c2ccc(Cl)cc2)c(=O)c1/C=C1\C(O)=CC(=O)c2ccccc21 showed a TGI (XF 498 CNS) of over 100 µM, a TGI (KM20L2 colon) of over 100 µM and a TGI (DLD-1 colon) of over 100 µM. The TGI (M19-MEL melanoma) was over 100 µM.

CS(=O)(=O)Nc1ccc(Nc2c3ccccc3nc3cc(Cl)ccc23)cc1 gave a GI50 (MDA-MB-435) of 3.48 µM, a TGI (MDA-MB-435) of 17.1 µM and a GI50 (T-47D breast) of 0.987 µM. It also gave a TGI (T-47D breast) of 13.3 µM, a GI50 (NCI/ADR-RES ovarian) of 3.93 µM and a TGI (NCI/ADR-RES ovarian) of 37.5 µM.

Work on Cc1nc(-c2cccnc2)sc1C(=O)/C=C/c1ccc(Cl)cc1Cl yielded a TGI (KM20L2 colon) of over 100 µM, a TGI (DLD-1 colon) of over 100 µM and a TGI (M19-MEL melanoma) of over 100 µM.

CC(=O)OCC1OC(OC(C)=O)C(NC#N)C(OC(C)=O)C1OC(C)=O (configuration not stated) showed a TGI (DLD-1 colon) of over 100 µM and a TGI (M19-MEL melanoma) of over 100 µM.

Compound COC(=O)C1=C(C)N(NC(=O)Nc2ccccc2)C2(N)N(NC(=O)Nc3ccccc3)C(C)=C(C(=O)OC)C12C(=O)OC (configuration not stated) has a TGI (KM20L2 colon) of over 100 µM, a TGI (DLD-1 colon) of over 100 µM and a TGI (M19-MEL melanoma) of 78.7 µM.

With COc1ccc(-c2ccc(/C=N/n3c(COc4ccc(Cl)c(C)c4)nn(CN4CCOCC4)c3=S)o2)c([N+](=O)[O-])c1 the GI50 (MDA-MB-435) was 21 µM, the TGI (MDA-MB-435) was 49.5 µM and the GI50 (T-47D breast) was 44.1 µM. For the same compound, the TGI (T-47D breast) was over 100 µM, the GI50 (NCI/ADR-RES ovarian) was 27.6 µM and the TGI (NCI/ADR-RES ovarian) was over 100 µM.

OCCn1c(-c2ccncc2)c(-c2ccc(F)cc2)c2ncccc21 was tested, and the GI50 (MDA-MB-435) was over 25 µM, the TGI (MDA-MB-435) was over 25 µM and the GI50 (T-47D breast) was over 25 µM. The TGI (T-47D breast) was over 25 µM, the GI50 (NCI/ADR-RES ovarian) was over 25 µM and the TGI (NCI/ADR-RES ovarian) was over 25 µM.

With CN(C)C(=O)c1cc2cnc(Nc3ccc(N4CCNCC4)cn3)nc2n1C1CCCC1 the GI50 (MDA-MB-435) was 12.7 µM, the TGI (MDA-MB-435) was 36.6 µM and the GI50 (T-47D breast) was 12.9 µM. It also gave a TGI (T-47D breast) of 91.8 µM, a GI50 (NCI/ADR-RES ovarian) of 37.8 µM and a TGI (NCI/ADR-RES ovarian) of over 100 µM.

Work on CCOC(=O)c1c(/C=N\Nc2ccccc2)nc2ccccc2c1-c1ccccc1 yielded a TGI (RXF-631 renal) of over 100 µM, a TGI (KM20L2 colon) of over 100 µM and a TGI (M19-MEL melanoma) of 60.7 µM.

COc1cc(/C=C/C(=O)c2c(-c3ccc(Cl)cc3)nc3sc(C)nn23)cc(OC)c1OC showed a GI50 (MDA-MB-435) of 12.1 µM, a TGI (MDA-MB-435) of over 100 µM and a GI50 (T-47D breast) of 2.56 µM. It also gave a TGI (T-47D breast) of 13.5 µM, a GI50 (NCI/ADR-RES ovarian) of 7.85 µM and a TGI (NCI/ADR-RES ovarian) of over 100 µM.

For COc1cc([C@H]2c3cc(O)c(OC)cc3C[C@]3(O)[C@@H]2CO[C@@H]3O)ccc1O, the TGI (MDA-MB-435) was over 100 µM, the TGI (MDA-N) was over 100 µM and the TGI (T-47D breast) was over 100 µM. The TGI (NCI/ADR-RES ovarian) was over 100 µM.

Work on COc1ccc(C[C@H](N)C(=O)N[C@@H]2[C@@H](CO)OC(n3cnc4c(N(C)C)ncnc43)[C@@H]2O)cc1 (some centres not stated) yielded a GI50 (MDA-MB-435) of 0.214 µM, a TGI (MDA-MB-435) of 0.809 µM and a GI50 (T-47D breast) of 0.137 µM. For the same compound, the TGI (T-47D breast) was 0.565 µM, the GI50 (NCI/ADR-RES ovarian) was 42.7 µM and the TGI (NCI/ADR-RES ovarian) was 50 µM.

CCCCc1c2c(nc3c1CC/C(=C\c1ccccc1)C3=O)CCCC2 showed a TGI (KM20L2 colon) of 12.7 µM, a TGI (DLD-1 colon) of 12.7 µM and a TGI (M19-MEL melanoma) of 16.9 µM.

Compound CC(C)(CCc1nc2ccccc2[nH]1)C(=O)O has a TGI (MDA-MB-435) of over 100 µM, a TGI (MDA-N) of over 100 µM and a TGI (T-47D breast) of over 100 µM. It also gave a TGI (NCI/ADR-RES ovarian) of over 100 µM.

With O=C(/C=C/N1CCN(c2cccc(Cl)c2)CC1)c1ccc(Cl)cc1 the GI50 (MDA-MB-435) was 19.3 µM, the TGI (MDA-MB-435) was 50.2 µM and the GI50 (T-47D breast) was 51.2 µM. For the same compound, the TGI (T-47D breast) was over 100 µM, the GI50 (NCI/ADR-RES ovarian) was 33.2 µM and the TGI (NCI/ADR-RES ovarian) was over 100 µM.

CCc1c[nH]c2ncnc(N3CC[C@](N)(CNC(=O)c4ccc(F)cc4F)C3)c12 gave a GI50 (MDA-MB-435) of 12.8 µM, a TGI (MDA-MB-435) of over 79.7 µM and a GI50 (T-47D breast) of 0.203 µM. The TGI (T-47D breast) was 11.1 µM, the GI50 (NCI/ADR-RES ovarian) was over 61.2 µM and the TGI (NCI/ADR-RES ovarian) was over 100 µM.

In the case of O=C(c1ccccc1)c1ccc(N2C(=O)C3C4c5ccccc5C(/C=C/C(=O)c5ccccn5)(c5ccccc54)C3C2=O)cc1 (configuration not stated), the GI50 (MDA-MB-435) was 2.9 µM, the TGI (MDA-MB-435) was 9.22 µM and the GI50 (T-47D breast) was 2.75 µM. It also gave a TGI (T-47D breast) of over 100 µM, a GI50 (NCI/ADR-RES ovarian) of 2.68 µM and a TGI (NCI/ADR-RES ovarian) of 12.8 µM.

C=CCCC1(CCP(=O)(c2ccccc2)c2ccccc2)OCCO1 was tested, and the TGI (MDA-MB-435) was over 100 µM, the TGI (MDA-N) was over 100 µM and the TGI (NCI/ADR-RES ovarian) was over 100 µM.

CCOC(=O)C1=C(O)c2c(OC)ccc(OC)c2C(=O)C1=O showed a TGI (XF 498 CNS) of over 100 µM, a TGI (KM20L2 colon) of over 100 µM and a TGI (DLD-1 colon) of over 100 µM. For the same compound, the TGI (M19-MEL melanoma) was over 100 µM.

Compound CCCNc1ncnc2c1cnn2C has a TGI (XF 498 CNS) of over 100 µM, a TGI (KM20L2 colon) of over 100 µM and a TGI (M19-MEL melanoma) of over 100 µM.

CC(C)C12CCC3(CCC4C(C)(C(=O)O)CCCC4(C)C3C1)C(CN)C2 (configuration not stated) showed a TGI (MDA-MB-435) of over 100 µM, a TGI (MDA-N) of 84 µM and a TGI (T-47D breast) of over 100 µM. For the same compound, the TGI (NCI/ADR-RES ovarian) was over 100 µM.

In the case of O=C(Nc1ccccc1)Oc1ccccc1C1CCCCC1, the TGI (XF 498 CNS) was 35 µM, the TGI (DLD-1 colon) was over 100 µM and the TGI (M19-MEL melanoma) was 37.5 µM.

In the case of CN(C)c1ccc(/C=C2\Cc3ccccc3C2=O)cc1Br, the TGI (XF 498 CNS) was 86.2 µM, the TGI (KM20L2 colon) was over 100 µM and the TGI (DLD-1 colon) was over 100 µM. The TGI (M19-MEL melanoma) was over 100 µM.

For Oc1ccc(/C=N/Nc2nnc(N/N=C/c3ccc(O)cc3O)c3ccccc23)c(O)c1, the GI50 (MDA-MB-435) was 0.587 µM, the TGI (MDA-MB-435) was 3.67 µM and the TGI (MDA-N) was 0.93 µM. For the same compound, the GI50 (T-47D breast) was 0.384 µM, the TGI (T-47D breast) was 0.633 µM and 1.64 µM and the TGI (NCI/ADR-RES ovarian) was 12.5 µM.

Compound CCOC(=O)C1C(=O)C(=O)N2CCc3c([nH]c4ccccc34)C12 (configuration not stated) has a TGI (KM20L2 colon) of over 100 µM, a TGI (DLD-1 colon) of over 100 µM and a TGI (M19-MEL melanoma) of over 100 µM.

With O=c1cccccc1[O-].O=c1cccccc1[O-].O=c1cccccc1[O-].[Dy+3] the GI50 (KM20L2 colon) was 18.4 µM, the TGI (KM20L2 colon) was over 100 µM and the GI50 (DLD-1 colon) was 16.9 µM. The TGI (DLD-1 colon) was over 100 µM.

Work on O=NNc1nc(-c2ccccn2)nc2ccccc12 yielded a TGI (MDA-N) of over 100 µM, a TGI (T-47D breast) of over 100 µM and a TGI (NCI/ADR-RES ovarian) of 63.5 µM.

Compound Cn1ncc2c(c1=O)Nc1ccccc1S2(=O)=O has a TGI (KM20L2 colon) of over 100 µM, a TGI (DLD-1 colon) of over 100 µM and a TGI (M19-MEL melanoma) of over 100 µM.

For CC(=O)Nc1ccc(C(=O)NN2C(=O)CSC2c2ccccc2)cc1 (configuration not stated), the TGI (MDA-MB-435) was over 100 µM, the TGI (MDA-N) was over 100 µM and the TGI (T-47D breast) was over 100 µM. It also gave a TGI (NCI/ADR-RES ovarian) of over 100 µM.

For CC(C)c1nc(Cl)c(Cl)c(Cl)n1, the TGI (MDA-MB-435) was 17.2 µM, the TGI (MDA-N) was 19 µM and the TGI (T-47D breast) was 42.7 µM. For the same compound, the TGI (NCI/ADR-RES ovarian) was 55.8 µM.

In the case of ClCc1ccc(Cn2cnc3nc(Cl)nc(Cl)c32)cc1, the GI50 (MDA-MB-435) was 1.71 µM, the TGI (MDA-MB-435) was 3.19 µM and the GI50 (T-47D breast) was 1.36 µM. It also gave a TGI (T-47D breast) of 4.82 µM, a GI50 (NCI/ADR-RES ovarian) of 1.77 µM and a TGI (NCI/ADR-RES ovarian) of 3.36 µM.
